Holding throughout (assay type): cell-based
In test [1] the target is human α1H T-type channels (Homo sapiens, UniProt O95180). The experiment in a line: T-type calcium channel block, whole cell patch clamp, α1H. Conditions: HEK cells stably expressing human α1H; mainly non-inactivated protocol; values above 10,000 nM represented as 10000. The procedure: (§1) T-type calcium channel blocking activity was assayed in human embryonic kidneycells, HEK 293 (Invitrogen), stably transfected with the T-type calcium channel subunits. Briefly, cells were cultured in Dulbecco's modified eagle medium (DMEM) supplemented with 10% fetal bovine serum, 200 U/ml penicillin, and 0.2 mg/mL streptomycin at 37° C. with 5% CO2. At 85% confluency, cells were split with 0.25% trypsin/1 mM EDTA and plated at 10% confluency on glass coverslips. At 12 hours, the medium was replaced, and the cells stably transfected using a standard calcium phosphate protocol and the appropriate calcium channel cDNA's. Fresh DMEM was supplied, and the cells transferred to 28° C./5% CO2.
(§2) Standard patch-clamp techniques were employed to identify blockers of T-type currents. Briefly, previously described HEK cell lines stably expressing human α1G, α1H, and α1I T-type channels were used for all the recordings (passage #: 4-20, 37° C., 5% CO2). Whole cell patch clamp experiments were performed using an Axopatch 200B amplifier (Axon Instruments, Burlingame, Calif.) linked to a personal computer equipped with pCLAMP software. Data were analyzed using Clampfit (Axon Instruments) and SigmaPlot 4.0 (Jandel Scientific). To obtain T-type currents, plastic dishes containing semi-confluent cells were positioned on the stage of a ZEISS AXIOVERT S100 microscope after replacing the culture medium with external solution (Table 2). Whole-cell patches were obtained using pipettes (borosilicate glass with filament, O.D.: 1.5 mm, I.D.: 0.86 mm, 10 cm length), fabricated on a SUTTER P-97 puller with resistance values of ˜5 MΩ (Table 3).
(§3) T-type currents were reliably obtained by using two voltage protocols: • “non-inactivating,” and • “inactivation.”
(§4) Test compounds were dissolved in external solution, 0.1-0.01% DMSO. After ˜10 minutes rest, they were applied by gravity close to the cell using a WPI microfil tubing. The “non-inactivated” pre-pulse was used to examine the resting block of a compound. The “inactivated” protocol was employed to study voltage-dependent block.

Test [2] deals with N-type calcium channel subunits (α1B, α2δ, and β3a) (Homo sapiens, UniProt Q00975). As to the kind of experiment: Block of Cav2.2 channel, whole cell voltage clamp, manual and PatchXpress. Conditions: Table 5; table follows Assay Example 3 (whole cell voltage clamp / PatchXpress); assay not given. The gist of the method:
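Percent block taken as current amplitude ratio with versus without compound, applied in rising doses; IC50 fitted where one cell received multiple doses. Protocol: 50 ms pulses to +20 mV at 0.067 Hz from […] or −90 mV holding; P/n leak subtraction, no junction-potential correction; manual and PatchXpress recordings.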

For test [3], the target named is human α1G T-type channels (Homo sapiens, UniProt O43497). As to the kind of experiment: T-type calcium channel block, whole cell patch clamp, α1G. As to conditions: HEK cells stably expressing human α1G; mainly non-inactivated protocol; values above 10,000 nM represented as 10000. As to the method:
as §1, §2, §3, §4
For orientation: Patch clamp records ionic current or voltage across a cell membrane.

pIC50: −log10 of the molar value.

human α1G T-type channels, sequence (O43497 whole entry): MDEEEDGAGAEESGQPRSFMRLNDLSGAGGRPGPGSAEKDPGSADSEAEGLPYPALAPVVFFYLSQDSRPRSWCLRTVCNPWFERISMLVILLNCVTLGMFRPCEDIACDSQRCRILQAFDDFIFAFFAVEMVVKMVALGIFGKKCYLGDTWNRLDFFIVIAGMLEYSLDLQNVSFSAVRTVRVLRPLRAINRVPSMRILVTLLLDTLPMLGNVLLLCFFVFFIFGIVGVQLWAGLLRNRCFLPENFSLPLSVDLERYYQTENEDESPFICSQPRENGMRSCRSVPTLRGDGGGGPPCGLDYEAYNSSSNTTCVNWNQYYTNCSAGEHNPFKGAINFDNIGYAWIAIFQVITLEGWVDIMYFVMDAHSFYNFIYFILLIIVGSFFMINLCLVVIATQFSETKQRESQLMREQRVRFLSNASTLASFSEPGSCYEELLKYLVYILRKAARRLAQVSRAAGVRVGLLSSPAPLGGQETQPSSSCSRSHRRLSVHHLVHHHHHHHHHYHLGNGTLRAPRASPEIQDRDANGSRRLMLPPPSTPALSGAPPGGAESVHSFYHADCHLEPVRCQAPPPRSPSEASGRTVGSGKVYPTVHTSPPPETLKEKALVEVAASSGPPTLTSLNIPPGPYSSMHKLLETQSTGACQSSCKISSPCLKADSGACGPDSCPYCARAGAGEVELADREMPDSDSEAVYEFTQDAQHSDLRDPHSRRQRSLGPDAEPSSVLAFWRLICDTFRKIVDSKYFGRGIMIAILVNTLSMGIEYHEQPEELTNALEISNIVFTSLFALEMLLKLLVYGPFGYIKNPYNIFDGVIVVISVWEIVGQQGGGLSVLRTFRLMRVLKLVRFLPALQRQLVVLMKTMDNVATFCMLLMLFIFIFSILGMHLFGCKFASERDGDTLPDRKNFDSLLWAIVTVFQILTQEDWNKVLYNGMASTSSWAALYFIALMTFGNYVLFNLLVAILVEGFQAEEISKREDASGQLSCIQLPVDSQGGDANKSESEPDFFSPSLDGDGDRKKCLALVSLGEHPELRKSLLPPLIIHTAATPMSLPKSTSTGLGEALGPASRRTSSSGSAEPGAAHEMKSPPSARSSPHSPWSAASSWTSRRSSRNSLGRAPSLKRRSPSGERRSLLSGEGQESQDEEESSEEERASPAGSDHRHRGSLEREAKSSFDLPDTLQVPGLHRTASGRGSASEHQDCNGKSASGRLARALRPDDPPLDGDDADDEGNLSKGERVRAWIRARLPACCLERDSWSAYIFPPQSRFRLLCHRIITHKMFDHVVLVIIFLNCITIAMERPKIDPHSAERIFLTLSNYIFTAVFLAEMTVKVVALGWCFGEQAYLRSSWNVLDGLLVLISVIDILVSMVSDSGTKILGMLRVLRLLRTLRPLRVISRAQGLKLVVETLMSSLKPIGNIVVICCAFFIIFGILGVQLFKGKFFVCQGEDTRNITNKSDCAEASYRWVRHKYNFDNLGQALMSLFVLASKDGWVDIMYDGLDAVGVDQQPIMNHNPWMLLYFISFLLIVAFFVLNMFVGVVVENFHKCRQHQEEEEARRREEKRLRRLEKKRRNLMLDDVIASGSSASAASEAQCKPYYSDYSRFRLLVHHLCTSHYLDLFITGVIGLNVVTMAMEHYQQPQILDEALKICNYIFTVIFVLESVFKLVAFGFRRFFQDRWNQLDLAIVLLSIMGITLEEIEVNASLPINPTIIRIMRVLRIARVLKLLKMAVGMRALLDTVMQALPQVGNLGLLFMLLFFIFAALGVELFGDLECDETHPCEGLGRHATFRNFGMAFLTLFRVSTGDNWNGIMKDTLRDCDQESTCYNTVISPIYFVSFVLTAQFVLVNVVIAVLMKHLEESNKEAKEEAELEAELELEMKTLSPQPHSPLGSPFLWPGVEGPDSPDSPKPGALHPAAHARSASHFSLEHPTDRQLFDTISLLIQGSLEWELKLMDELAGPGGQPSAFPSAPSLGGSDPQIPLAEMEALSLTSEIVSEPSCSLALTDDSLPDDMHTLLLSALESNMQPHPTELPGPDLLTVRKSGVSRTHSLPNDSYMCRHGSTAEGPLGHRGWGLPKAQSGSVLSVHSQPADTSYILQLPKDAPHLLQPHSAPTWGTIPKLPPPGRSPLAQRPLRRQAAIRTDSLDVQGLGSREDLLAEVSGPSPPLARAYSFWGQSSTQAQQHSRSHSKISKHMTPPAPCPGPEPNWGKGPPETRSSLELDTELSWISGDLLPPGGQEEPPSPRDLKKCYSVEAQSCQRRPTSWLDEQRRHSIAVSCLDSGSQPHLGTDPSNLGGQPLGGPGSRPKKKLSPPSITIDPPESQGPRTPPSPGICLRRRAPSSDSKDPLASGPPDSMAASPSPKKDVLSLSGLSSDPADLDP
human α1H T-type channels, sequence (O95180 whole entry): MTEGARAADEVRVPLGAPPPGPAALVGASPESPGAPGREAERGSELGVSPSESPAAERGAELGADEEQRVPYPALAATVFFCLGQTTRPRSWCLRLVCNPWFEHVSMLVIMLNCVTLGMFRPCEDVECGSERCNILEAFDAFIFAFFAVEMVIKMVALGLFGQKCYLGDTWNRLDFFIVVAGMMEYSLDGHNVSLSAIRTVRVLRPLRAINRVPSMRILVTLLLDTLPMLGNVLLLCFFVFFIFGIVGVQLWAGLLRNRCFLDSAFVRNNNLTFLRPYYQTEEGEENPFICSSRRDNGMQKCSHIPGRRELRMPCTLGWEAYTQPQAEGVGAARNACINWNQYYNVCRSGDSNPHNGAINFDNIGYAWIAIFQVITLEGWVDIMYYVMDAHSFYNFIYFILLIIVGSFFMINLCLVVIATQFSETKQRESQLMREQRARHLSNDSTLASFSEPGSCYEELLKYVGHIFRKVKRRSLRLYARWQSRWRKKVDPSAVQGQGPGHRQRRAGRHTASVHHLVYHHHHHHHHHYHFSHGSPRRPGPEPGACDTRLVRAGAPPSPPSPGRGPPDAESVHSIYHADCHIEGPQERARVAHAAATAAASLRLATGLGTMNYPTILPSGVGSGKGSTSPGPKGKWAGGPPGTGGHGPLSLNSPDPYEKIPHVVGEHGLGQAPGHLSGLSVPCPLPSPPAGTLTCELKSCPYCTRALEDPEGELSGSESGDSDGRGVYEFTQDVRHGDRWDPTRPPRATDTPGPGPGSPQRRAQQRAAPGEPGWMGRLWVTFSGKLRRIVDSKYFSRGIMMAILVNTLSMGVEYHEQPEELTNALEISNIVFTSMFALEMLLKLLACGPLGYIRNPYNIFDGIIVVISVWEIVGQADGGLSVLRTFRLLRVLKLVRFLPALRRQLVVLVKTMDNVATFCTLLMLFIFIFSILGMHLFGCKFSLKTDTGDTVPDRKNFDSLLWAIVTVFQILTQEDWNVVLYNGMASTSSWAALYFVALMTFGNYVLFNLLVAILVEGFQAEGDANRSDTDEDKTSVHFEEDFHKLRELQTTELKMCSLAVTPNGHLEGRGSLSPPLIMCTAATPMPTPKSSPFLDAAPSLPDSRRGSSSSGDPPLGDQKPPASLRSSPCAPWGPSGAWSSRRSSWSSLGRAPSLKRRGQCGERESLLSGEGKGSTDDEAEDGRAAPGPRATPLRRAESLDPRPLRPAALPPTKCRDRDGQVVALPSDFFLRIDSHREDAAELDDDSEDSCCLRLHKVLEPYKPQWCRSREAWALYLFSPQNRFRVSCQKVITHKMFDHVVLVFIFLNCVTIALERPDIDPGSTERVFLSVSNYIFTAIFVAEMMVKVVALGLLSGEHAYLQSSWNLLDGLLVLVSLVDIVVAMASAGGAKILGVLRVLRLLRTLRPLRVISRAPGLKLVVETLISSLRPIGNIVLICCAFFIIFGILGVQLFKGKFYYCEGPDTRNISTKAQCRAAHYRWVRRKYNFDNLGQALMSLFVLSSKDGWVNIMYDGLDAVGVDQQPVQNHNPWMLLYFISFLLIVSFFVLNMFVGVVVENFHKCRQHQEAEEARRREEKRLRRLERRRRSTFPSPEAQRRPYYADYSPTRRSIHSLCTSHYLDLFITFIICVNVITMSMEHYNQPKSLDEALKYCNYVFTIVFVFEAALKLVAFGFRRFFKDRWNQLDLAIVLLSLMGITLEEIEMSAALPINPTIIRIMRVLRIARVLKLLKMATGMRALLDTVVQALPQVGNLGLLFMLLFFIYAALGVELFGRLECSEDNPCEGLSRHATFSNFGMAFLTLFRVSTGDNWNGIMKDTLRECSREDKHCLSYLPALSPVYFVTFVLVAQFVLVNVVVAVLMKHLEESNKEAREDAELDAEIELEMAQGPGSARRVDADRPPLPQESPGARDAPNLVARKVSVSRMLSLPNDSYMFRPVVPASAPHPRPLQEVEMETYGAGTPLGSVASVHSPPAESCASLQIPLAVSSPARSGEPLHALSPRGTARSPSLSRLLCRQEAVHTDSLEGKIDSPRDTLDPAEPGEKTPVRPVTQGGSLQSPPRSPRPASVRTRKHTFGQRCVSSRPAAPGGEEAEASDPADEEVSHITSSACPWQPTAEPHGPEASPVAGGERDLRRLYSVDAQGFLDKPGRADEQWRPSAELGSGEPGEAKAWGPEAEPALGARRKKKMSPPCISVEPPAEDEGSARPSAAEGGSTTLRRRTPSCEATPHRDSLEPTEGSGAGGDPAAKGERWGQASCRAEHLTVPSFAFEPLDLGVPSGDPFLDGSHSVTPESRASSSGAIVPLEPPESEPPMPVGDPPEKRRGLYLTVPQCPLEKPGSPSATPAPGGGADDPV

For “6-fluoro-N-((1R,4R)-4-((3- (trifluoromethyl)phenylsulfonyl) methyl)cyclohexyl)-1H- benzo[d]imidazole-2-carboxamide [Compound 110]”, in test [1], the pIC50 (in general, −log10 of the IC50, conventionally taken in molar units) is less than 5.00. Further, the IC50 (usually the midpoint of a concentration-inhibition curve) in test [2] is 6020 nM.

With `CC1(S(=O)(=O)c2cccc(C(F)(F)F)c2)CCC(NC(=O)c2ccc(C(F)(F)F)cn2)CC1` (stereo not shown) [Compound 3, N-(4-methyl-4-(3-(trifluoromethyl)phenylsulfonyl)cyclohexyl)-5-(trifluoromethyl) picolinamide], the pIC50 in test [1] was less than 5.00. Moreover, the IC50 in test [2] turned out to be 640 nM.

Consider `CC1(S(=O)(=O)c2cccc(C(F)(F)F)c2)CCC(NC(=O)CCC(F)(F)F)CC1` (stereo not shown) [Compound 5, 4,4,4-trifluoro-N-(4-methyl-4-(3-(trifluoromethyl)phenylsulfonyl)cyclohexyl)butanamide], for which, in test [1], the pIC50 is less than 5.00. For the same molecule, the IC50 in test [2] is 380 nM. Take `CC(C)(C)NC(=O)CNC[C@H]1CC[C@@H](S(=O)(=O)c2cccc(C(F)(F)F)c2)CC1` [Compound 35, N-tert-butyl-2-(((1S,4S)-4-(3-(trifluoromethyl)phenylsulfonyl)cyclohexyl)methylamino)acetamide]: the pIC50 in test [1] is less than 5.00.

As for `COc1cc(F)cc(C(=O)N[C@H]2CC[C@@H](S(=O)(=O)c3cccc(C(F)(F)F)c3)CC2)c1` [Compound 39, 3-fluoro-5-methoxy-N-((1S,4S)-4-(3-(trifluoromethyl)phenylsulfonyl)cyclohexyl)benzamide], in test [1], the negative-log IC50 (pIC50) is less than 5.00. In addition, the IC50 in test [2] was found to be 410 nM.

For the molecule `Cn1cc(C(=O)N[C@H]2CC[C@@H](S(=O)(=O)c3cccc(C(F)(F)F)c3)CC2)c(C(F)(F)F)n1` [Compound 45, 1-methyl-3-(trifluoromethyl)-N-((1S,4S)-4-(3-(trifluoromethyl)phenylsulfonyl)cyclohexyl)-1H-pyrazole-4-carboxamide], in test [1], the pIC50 is less than 5.00. Also, the IC50 in test [2] is 1290 nM. For `CCN(CC)C(=O)CN[C@H]1CC[C@@H](S(=O)(=O)c2cccc(C(F)(F)F)c2)CC1` [Compound 51, N,N-diethyl-2-((1S,4S)-4-(3-(trifluoromethyl)phenylsulfonyl)cyclohexylamino)acetamide], in test [1], the negative-log IC50 (pIC50) is less than 5.00. The IC50 in test [2] was determined as 1510 nM. Turning to `O=C(N[C@H]1CC[C@H](S(=O)(=O)c2cccc(C(F)(F)F)c2)CC1)c1cc(C(F)(F)F)ccn1` [Compound 61, 4-(trifluoromethyl)-N-((1R,4R)-4-(3-(trifluoromethyl)phenylsulfonyl)cyclohexyl)picolinamide], the pIC50 in test [1] was less than 5.00. Moreover, in test [2], the IC50 is 1650 nM. With `Cn1cc(C(=O)N[C@H]2CC[C@H](S(=O)(=O)c3cccc(C(F)(F)F)c3)CC2)c(C(F)(F)F)n1` [Compound 64, 1-methyl-3-(trifluoromethyl)-N-((1R,4R)-4-(3-(trifluoromethyl)phenylsulfonyl)cyclohexyl)-1H-pyrazole-4-carboxamide], the negative-log IC50 (pIC50) in test [1] was less than 5.00. Moreover, in test [2], the IC50 amounted to 550 nM.

Consider `O=C(NC[C@]1(O)CC[C@@H](S(=O)(=O)c2cccc(C(F)(F)F)c2)CC1)c1cc(F)cc(Cl)c1` [Compound 228, 3-chloro-5-fluoro-N-(((1S,4S)-1-hydroxy-4-(3-(trifluoromethyl)phenylsulfonyl)cyclohexyl)methyl)benzamide], for which, in test [3], the pIC50 was 6.48. Further, in test [2], the IC50 came to 740 nM.

Turning to `O=C(NC[C@]1(O)CC[C@@H](S(=O)(=O)c2cccc(C(F)(F)F)c2)CC1)c1ccc(F)c(C(F)(F)F)c1` [Compound 234, 4-fluoro-N-(((1S,4S)-1-hydroxy-4-(3-(trifluoromethyl)phenylsulfonyl)cyclohexyl)methyl)-3-(trifluoromethyl)benzamide], in test [3], the pIC50 is 5.67. Also, in test [2], the IC50 turned out to be 870 nM. For `O=C(N[C@H]1CC[C@@](F)(S(=O)(=O)c2cccc(C(F)(F)F)c2)CC1)c1ccc(F)c(Cl)c1` [Compound 238, 3-chloro-4-fluoro-N-((1S,4S)-4-fluoro-4-(3-(trifluoromethyl)phenylsulfonyl)cyclohexyl)benzamide], the pIC50 in test [3] was 5.56. Further, the 50% inhibitory concentration (IC50) in test [2] amounted to 90 nM.

Take `CS(=O)(=O)c1cc(C(F)(F)F)ccc1C(=O)N[C@H]1CC[C@@](F)(S(=O)(=O)c2cccc(C(F)(F)F)c2)CC1` [Compound 239, N-((1S,4S)-4-fluoro-4-(3-(trifluoromethyl)phenylsulfonyl)cyclohexyl)-2-(methylsulfonyl)-4-(trifluoromethyl)benzamide]: the negative-log IC50 (pIC50) in test [3] was 5.79. In addition, the IC50 in test [2] worked out at 340 nM. In the case of `Cn1nc(C(F)(F)F)cc1C(=O)N[C@H]1CC[C@@](F)(S(=O)(=O)c2cccc(C(F)(F)F)c2)CC1` [Compound 241, N-((1S,4S)-4-fluoro-4-(3-(trifluoromethyl)phenylsulfonyl)cyclohexyl)-1-methyl-3-(trifluoromethyl)-1H-pyrazole-5-carboxamide], the pIC50 in test [3] is 5.84. Besides, the IC50 in test [2] turned out to be 130 nM. Turning to `COc1cc(C(=O)N[C@H]2CC[C@@](F)(S(=O)(=O)c3cccc(C(F)(F)F)c3)CC2)cc(Cl)n1` [Compound 242, 2-chloro-N-((1S,4S)-4-fluoro-4-(3-(trifluoromethyl)phenylsulfonyl)cyclohexyl)-6-methoxyisonicotinamide], in test [3], the pIC50 is 5.37. The half-inhibitory concentration (IC50) in test [2] was found to be 110 nM. With `Cc1cc(C(=O)N[C@H]2CC[C@@](F)(S(=O)(=O)c3cccc(C(F)(F)F)c3)CC2)c(C(F)(F)F)o1` [Compound 243], the pIC50 in test [3] is 5.35. In addition, the IC50 in test [2] amounted to 60 nM.

On to `CC(C)(C)S(=O)(=O)c1ccsc1C(=O)N[C@H]1CC[C@@](F)(S(=O)(=O)c2cccc(C(F)(F)F)c2)CC1` [Compound 244, 3-(tert-butylsulfonyl)-N-((1S,4S)-4-fluoro-4-(3-(trifluoromethyl)phenylsulfonyl)cyclohexyl)thiophene-2-carboxamide], for which the pIC50 in test [3] was 5.45. Further, the IC50 in test [2] was 40 nM. Regarding `O=C(N[C@H]1CC[C@@](F)(S(=O)(=O)c2cccc(C(F)(F)F)c2)CC1)c1ccnn1CC(F)(F)F` [Compound 245, N-((1S,4S)-4-fluoro-4-(3-(trifluoromethyl)phenylsulfonyl)cyclohexyl)-1-(2,2,2-trifluoroethyl)-1H-pyrazole-5-carboxamide], the pIC50 in test [3] is 5.42. Also, the 50% inhibitory concentration (IC50) in test [2] is 130 nM. Turning to `O=C(N[C@H]1CC[C@@](F)(S(=O)(=O)c2cccc(C(F)(F)F)c2)CC1)c1ccnc(C(F)(F)F)c1` [Compound 246], in test [3], the pIC50 was 5.76. For the same molecule, the IC50 in test [2] was found to be 130 nM. As for `O=S(=O)(N[C@H]1CC[C@@](F)(S(=O)(=O)c2cccc(C(F)(F)F)c2)CC1)c1ccc(C(F)(F)F)cc1` [Compound 301, N-((1S,4S)-4-fluoro-4-(3-(trifluoromethyl)phenylsulfonyl)cyclohexyl)-4-(trifluoromethyl) benzenesulfonamide], in test [3], the pIC50 was less than 5.00. Also, the half-maximal inhibitory concentration (IC50) in test [2] is 530 nM. Regarding `CC(C)(C)NC(=O)CNC[C@H]1C[C@H](S(=O)(=O)c2cccc(C(F)(F)F)c2)C1` [Compound 359, N-tert-butyl-2-(((1R,3R)-3-(3-(trifluoromethyl)phenylsulfonyl)cyclobutyl)methylamino)acetamide], the pIC50 in test [3] was 5.27. For the same molecule, the half-inhibitory concentration (IC50) in test [2] amounted to 1610 nM. Regarding `O=C(Nc1ccc(Oc2ccc(F)cc2)nc1)[C@H]1C[C@H](S(=O)(=O)c2cccc(C(F)(F)F)c2)C1` [Compound 405, (1R,3R)-N-(6-(4-fluorophenoxy)pyridin-3-yl)-3-(3-(trifluoromethyl)phenylsulfonyl)cyclobutane carboxamide], in test [3], the pIC50 is less than 5.00. The IC50 in test [2] was 1300 nM. On to `O=S(=O)(NC[C@H]1C[C@H](S(=O)(=O)c2cccc(C(F)(F)F)c2)C1)c1ccccc1C(F)(F)F` [Compound 426, 2-(trifluoromethyl)-N-(((1R,3R)-3-(3-(trifluoromethyl)phenylsulfonyl)cyclobutyl)methyl)benzenesulfonamide], for which the pIC50 in test [3] is less than 5.00. In addition, the IC50 in test [2] was determined as 1140 nM. As to `CC(C)(CCNC(=O)c1ccc(F)c(C(F)(F)F)c1)S(=O)(=O)c1cccc(C(F)(F)F)c1` [Compound 466, 4-fluoro-N-(3-methyl-3-(3-(trifluoromethyl)phenylsulfonyl)butyl)-3-(trifluoromethyl)benzamide], the pIC50 in test [1] is 6.26.

Source of the values: patent US20120245137A1 (Zalicus Pharmaceuticals Ltd., priority 2009, published 2012).
